Test results published in PMC8878468, “Image-Based Annotation of Chemogenomic Libraries for Phenotypic Screening” (Molecules, 2022).
Structures can show the parent of a compound that is named as a salt. Where two headings read alike, the source gives them in different places.

Columns and labels:
[1] = system: U2OS cells; experiment: Multiplex high-content protocol (nuclei gating, tubulin, mitochondrial mass, membrane permeability); format: cell-based, human; settings: for increase in mitochondrial mass in comparison to DMSO / tubulin effect: healthy nuclei only; for marked for tubulin effects while crossing no other phenotypic threshold / mitochondrial mass increase detected: threshold > 50%; for viability at 1 µM: Homo sapiens, read-out: healthy nuclei
Description: Using the CQ1 high-content confocal microscope (Yokogawa), cellular shape and fluorescence was measured before and 12 h as well as 24 h after compound treatment. All compounds were diluted in DMSO to a concentration of 10 mM.
The rather large spacing distance was used to create a robust readout, compensating potential plate variations and enabling automated screening without the use of autofocus. The overlap of the fluorescence emission spectra of the dyes was neglectable for all but the MitoTracker Red and Annexin V Alexa Fluor 680 (Supplementary Figure S9).
All images were analyzed using the CellPathfinder software (Yokogawa). Segmentation of cells was performed as described earlier. First, the cells are classified in Hoechst High Intensity Objects or Normal Intensity Objects (Supplementary Table S7). All normal gated cells are further classified in healthy, fragmented or pyknosed nuclei (Supplementary Table S7). The pyknosed cells are gated in mitotic or apoptotic cells using seven features for the cell body and five features for the cell nuclei according to their Annexin V staining intensity (Supplementary Table S7). All cells that were classified as including a healthy nucleus are further gated into three phenotypic classes. […] Growth rate was calculated against non-treated cells and cells treated with DMSO 0.1% [61].

[2] = system: HCT116-FUCCI cells; set-up: method as in per compound as in column reference of Table S3; settings: literature annotation in Table S3; ref per compound as in Table S3; cited from earlier work
[3] = system: U2OS cells; experiment: cells; settings: Homo sapiens
[4] = system: HCT116-FUCCI cells; experiment: FUCCI cell cycle assay with nuclear gating; format: cell-based, human; settings: 10 µM, up to 70 h
Description: For generation of a stable cell line, including the florescent ubiquitination-base cell cycle indicator FUCCI, the plasmid-based transposon system Sleeping Beauty was used. Vector (pSBbi_Fucci) and the Transposase SB100X have been described previously. […] Two days after transfection, cells were selected over 10 days using puromycin (1 µg/mL) and cultivated afterwards for two more weeks in McCoys 5A plus L-Glutamine (Gibco) supplemented by 10% FBS (Gibco) and Penicillin/Streptomycin (Gibco).
Fluorescence and cellular shape were measured before and after compound treatment for 72 h every 12 h using the CQ1 high-content confocal microscope (Yokogawa). […]
Image analysis was performed using the CellPathfinder software (Yokogawa). Segmentation of cells was performed as described earlier. First, the cells are classified in Hoechst High Intensity Objects or Normal Intensity Objects (Supplementary Table S7). All normal gated cells are further classified in healthy, fragmented or pyknosed nuclei (Supplementary Table S7). […] Total cell count was normalized against total cell count of cells treated with 0.1% DMSO.

Structure (SMILES): c1ccc2oc(-c3csc(C4CCN(Cc5nc6ncccc6[nH]5)CC4)n3)cc2c1 [BAY-179]
- healthy nuclei (healthy cells) ([1]; U2OS, 10 µM, 24 h): over 80%
- increase in mitochondrial mass in comparison to DMSO ([1]; U2OS, 10 µM, 24 h): over 60%

Structure (SMILES): Cc1cc(C)c(-n2ccn3nc(-c4cccnc4)cc23)cc1NC(=O)c1cc(C#N)cc(S(F)(F)(F)(F)F)c1 [BAY-826]
- marked for tubulin effects while crossing no other phenotypic threshold ([1]; U2OS, 1 µM): marked to have tubulin effects

Structure (SMILES): C[C@@]1(C(=O)Nc2ccc(F)nc2)CCCN1c1nc(Nc2cc(C3CC3)n[nH]2)c2cccn2n1 [BMS-754807]
- viability at 1 µM ([1]; U2OS, 1 µM, 24 h): ≤ 40%

Structure (SMILES): CCOC(=O)Nc1cc(-c2ccc(C)c(NS(C)(=O)=O)c2)nn2c(C)nnc12 [Bromosporine]
- marked for tubulin effects while crossing no other phenotypic threshold ([1]; U2OS, 1 µM): marked to have tubulin effects
- known cell cycle effect [2]: increase of cells in G1

Structure (SMILES): CCNc1cc(NC2CCC(O)CC2)nc(Nc2ccc3c(ccn3Cc3ccccc3)c2)n1 (centres unmarked) [CINK4]
- marked for tubulin effects while crossing no other phenotypic threshold ([1]; U2OS, 1 µM): marked to have tubulin effects

Structure (SMILES): CN1CCN(Cc2cc(NC(=O)c3ccc4c(c3)CN(c3ccccc3)CC4)cc(C(F)(F)F)c2)CC1 [DDR-TRK-1N]
- healthy nuclei ([1]; U2OS, 1 µM, 24 h): ≤ 40%

Structure (SMILES): Cc1ccc(NC(=O)Nc2cc(C(F)(F)F)ccc2F)cc1Nc1ccc2c(c1)NC(=O)/C2=C\c1ccc[nH]1 [GNF-5837]
- viability at 1 µM ([1]; U2OS, 1 µM, 24 h): ≤ 40%
- decrease of healthy nuclei count ([1]; U2OS, 1 µM): more than 60%

Structure (SMILES): CCn1cc(-c2ccnc3[nH]c(-c4cccc(CN(C)C)c4)cc23)c(-c2ccc(NC(=O)N(C)C)cc2)n1 [GSK1070916]
- mitochondrial mass increase detected ([1]; U2OS, 1 µM): mitochondrial mass increase

Structure (SMILES): CN([C@@H](Cc1ccc(OS(=O)(=O)c2cccc3cnccc23)cc1)C(=O)N1CCN(c2ccccc2)CC1)S(=O)(=O)c1cccc2cnccc12 [KN-62]
- tubulin effects ([1]; U2OS, 1 µM): > 90%

Structure (SMILES): Cc1c(P(=S)(c2ccccc2)c2ccccc2)n2ccccc2[n+]1C/C=C/c1ccccc1 [ML154]
- viability at 1 µM ([1]; U2OS, 1 µM, 24 h): ≤ 40%

Structure (SMILES): CC(C)Oc1ccccc1C(=O)Nc1ccccc1C(=O)Nc1cccc(S(=O)(=O)C(F)(F)F)c1 [ML-290]
- mitochondrial mass increase detected ([1]; U2OS, 1 µM): mitochondrial mass increase

Structure (SMILES): Nc1ncnc2c1c(-c1cccc(OCc3ccccc3)c1)cn2[C@H]1C[C@@H](CN2CCC2)C1 [NVP-AEW541]
- mitochondrial mass increase detected ([1]; U2OS, 1 µM): mitochondrial mass increase

Structure (SMILES): CCOC(=O)c1c(C)[nH]c2ccc3c(c12)CN1CCc2cc(OC)ccc2C1O3 (centres unmarked) [PD 102807]
- mitochondrial mass increase detected ([1]; U2OS, 1 µM): mitochondrial mass increase

Structure (SMILES): COc1cc2ncnc(Nc3ccc(F)c(Cl)c3)c2cc1NC(=O)/C=C/CN1CCCCC1 [PF-299804]
- membrane permeabilization effects ([1]; U2OS, 1 µM, 24 h): more than 65%
- marked for tubulin effects while crossing no other phenotypic threshold ([1]; U2OS, 1 µM): marked to have tubulin effects

Structure (SMILES): Cc1[nH]c2ccccc2c1CCNCc1ccc(/C=C/C(=O)NO)cc1 [Panobinostat]
- known cell cycle effect [2]: G 1/S cell cy cle arrest

Structure (SMILES): COc1cc(Nc2ccnc3ccc(Br)cc23)cc(OC)c1OC [SGC-GAK-1]
- mitochondrial mass increase detected ([1]; U2OS, 1 µM): mitochondrial mass increase

Structure (SMILES): CS(=O)(=O)N1CCCC(NC(=O)[C@H](CCC2CCCCC2)NC(=O)c2ccc(CNC(=O)c3cnc4ccccn34)cc2)C1 (some centres unmarked) [SR-302]
- tubulin effect ([1]; U2OS, 10 µM, 24 h): more than 90%

Structure (SMILES): Nc1c(C(=O)NCc2ccc(C(=O)NCCCC3CCCCC3)cc2)cnn1-c1ccccc1 [SR-318]
- marked for tubulin effects while crossing no other phenotypic threshold ([1]; U2OS, 1 µM): marked to have tubulin effects
- healthy nuclei (healthy cells) ([1]; U2OS, 10 µM, 24 h): over 80%
- increase in mitochondrial mass in comparison to DMSO ([1]; U2OS, 10 µM, 24 h): over 60%
- tubulin effect ([1]; U2OS, 10 µM, 24 h): more than 90%

Structure (SMILES): Cc1[nH]c(/C=C2\C(=O)Nc3ccc(S(=O)(=O)N(C)c4cccc(Cl)c4)cc32)c(C)c1C(=O)N1CCN(C)CC1 [SU11274]
- marked for tubulin effects while crossing no other phenotypic threshold ([1]; U2OS, 1 µM): marked to have tubulin effects

Structure (SMILES): Cc1cc(C)cc(-c2cnc3cc(Cl)c(-c4cccc(O)c4)cc3c2OCCCN)c1 [TC-G 1003]
- mitochondrial mass increase detected ([1]; U2OS, 1 µM): mitochondrial mass increase

Structure (SMILES): CN1CCN(Cc2ccc(Nc3ncc(Cl)c(Nc4ccccc4S(=O)(=O)N(C)C)n3)cc2)CC1 [TP0903]
- viability at 1 µM ([1]; U2OS, 1 µM, 24 h): ≤ 40%
- decrease of healthy nuclei count ([1]; U2OS, 1 µM): more than 60%

Structure (SMILES): C=CC(=O)Nc1cccc(Oc2nc(Nc3ccc(N4CCN(C)CC4)cc3OC)ncc2Cl)c1 [WZ-4002]
- effect on tubulin ([1]; 1 µM, 12 h): effect on tubulin
- membrane permeabilization effects ([1]; U2OS, 1 µM, 24 h): membrane permeabilization

Structure (SMILES): CCOc1cc(C(=O)N2CCC(N3CCN(C)CC3)CC2)ccc1Nc1ncc2c(n1)N(C1CCCC1)c1ccccc1C(=O)N2C [XMD17-109]
- mitochondrial mass increase detected ([1]; U2OS, 1 µM): mitochondrial mass increase

Structure (SMILES): Nc1ccc(C(=O)Nc2cccc(-c3nc(N4CCOCC4)c4oc5ncccc5c4n3)c2)cn1 [YM-201636]
- marked for tubulin effects while crossing no other phenotypic threshold ([1]; U2OS, 1 µM): marked to have tubulin effects

Structure (SMILES): COc1cc2c(Nc3ccc(NC(=O)c4ccccc4)cc3)ncnc2cc1OCCCN1CCOCC1 [ZM447439]
- marked for tubulin effects while crossing no other phenotypic threshold ([1]; U2OS, 1 µM): marked to have tubulin effects

Structure (SMILES): C=CCn1c(=O)c2cnc(Nc3ccc(N4CCN(C)CC4)cc3)nc2n1-c1cccc(C(C)(C)O)n1 [adavosertib]
- viability at 1 µM ([1]; U2OS, 1 µM, 24 h): ≤ 40%

Structure (SMILES): CN1CCCC(n2nc(Cc3ccc(Cl)cc3)c3ccccc3c2=O)CC1 (centres unmarked) [azelastine]
- mitochondrial mass increase detected ([1]; U2OS, 1 µM): mitochondrial mass increase

Structure (SMILES): CNCc1ccc(-c2cc(-c3nc(-c4ccc(S(=O)(=O)C(C)C)cc4)cnc3N)on2)cc1 [berzosertib]
- Hoechst High Intensity Objects (Hoechst intensity compared to normal nuclei) ([1]; U2OS, 1 µM): more than 50%
- IC50 ([3]; 14 h, read-out: IC 50 14 h): 0.0627 µM
- IC50 ([3]; 26 h, read-out: IC 50 26 h): 0.0641 µM
- IC50 ([3]; 42 h, read-out: IC 50 42 h): 0.0587 µM
- IC50 ([3]; 56 h, read-out: IC 50 56 h): 0.0565 µM

Structure (SMILES): C[C@@H]1CC[C@@]2(OC1)O[C@H]1[C@@H](O)[C@H]3[C@@H]4CC[C@H]5C[C@@H](O[C@@H]6O[C@H](CO)[C@H](O[C@@H]7O[C@H](CO)[C@@H](O)[C@H](O[C@@H]8OC[C@@H](O)[C@H](O)[C@H]8O)[C@H]7O[C@@H]7O[C@H](CO)[C@H](O)[C@H](O[C@@H]8O[C@H](CO)[C@@H](O)[C@H](O)[C@H]8O)[C@H]7O)[C@H](O)[C@H]6O)[C@H](O)C[C@]5(C)[C@H]4CC[C@]3(C)[C@H]1[C@@H]2C [digitonin]
- healthy nuclei (healthy cells) ([1]; U2OS, 10 µM, 24 h): more than 50%
- IC50 ([3]; 14 h, read-out: IC 50 14 h): 10.6 µM
- IC50 ([3]; 26 h, read-out: IC 50 26 h): 11.6 µM
- IC50 ([3]; 42 h, read-out: IC 50 42 h): 11.5 µM
- IC50 ([3]; 56 h, read-out: IC 50 56 h): 15.1 µM

Structure (SMILES): CCN1CCN(c2ccc(Nc3cc(N(C)C(=O)Nc4c(Cl)c(OC)cc(OC)c4Cl)ncn3)cc2)CC1 [infigratinib]
- viability at 1 µM ([1]; U2OS, 1 µM, 24 h): ≤ 40%

Structure (SMILES): COc1ncc(-c2ccc3nccc(-c4ccnnc4)c3c2)cc1NS(=O)(=O)c1ccc(F)cc1F [omipalisib]
- viability at 1 µM ([1]; U2OS, 1 µM, 24 h): ≤ 40%
- decrease of healthy nuclei count ([1]; U2OS, 1 µM): more than 60%

Structure (SMILES): O=C(CCCCCCNC(=O)c1cnc(N(c2ccccc2)c2ccccc2)nc1)NO [ricolinostat]
- IC50 ([3]; 26 h, read-out: IC 50 26 h): 13.5 µM
- IC50 ([3]; 42 h, read-out: IC 50 42 h): 13.4 µM
- IC50 ([3]; 56 h, read-out: IC 50 56 h): 13.7 µM

Structure (SMILES): CC[C@@]1(O)C(=O)OCc2c1cc1n(c2=O)Cc2cc3c(CN(C)C)c(O)ccc3nc2-1 [topotecan]
- change of FUCCI nuclei population in comparison to DMSO [4]: increase in green nuclei
- mitochondrial mass increase detected ([1]; U2OS, 1 µM): mitochondrial mass increase
- healthy nuclei (healthy cells) ([1]; U2OS, 10 µM, 24 h): less than 50%
- Hoechst High Intensity Objects ([1]; U2OS, 10 µM, after 24 h, in one of two biological replicates): > 30%

Structure (SMILES): CC(=O)Nc1cccc(-n2c(=O)n(C3CC3)c(=O)c3c(Nc4ccc(I)cc4F)n(C)c(=O)c(C)c32)c1 [trametinib]
- change of FUCCI nuclei population in comparison to DMSO [4]: increase in red nuclei

Structure (SMILES): CCC1=C[C@@H]2CN(C1)Cc1c([nH]c3ccccc13)[C@@](C(=O)OC)(c1cc3c(cc1OC)N(C)[C@H]1[C@@](O)(C(=O)OC)[C@H](OC(C)=O)[C@]4(CC)C=CCN5CC[C@]31[C@@H]54)C2 [vinorelbine tartrate]
- tubulin effect ([1]; U2OS, 10 µM, 24 h): increased tubulin effects

Structure (SMILES): CC[C@@H]1C(=O)N(C)c2cnc(Nc3ccc(C(=O)N[C@H]4CC[C@H](N5CCN(CC6CC6)CC5)CC4)cc3OC)nc2N1C(C)C [volasertib]
- viability at 1 µM ([1]; U2OS, 1 µM, 24 h): ≤ 40%
